In this test the target is recombinant human Cathepsin S (Homo sapiens (Human), UniProt P25774). Briefly: Cathepsin S assay procedure (fluorogenic substrate Z-Val-Val-Arg-AMC). In kind it is biochemical. As for the experimental part: 25 μl of a 2 mg/l solution of activated recombinant human cathepsin S, in assay buffer, is then added to the well, yielding a final inhibitor concentration of 10 μM.
Enzyme activity is determined by measuring the fluorescence of the liberated aminomethylcoumarin at […] using 390 nm excitation, at 20 minutes. Percentage enzyme activity is calculated by comparison of this activity to that of a solution containing no inhibitor.

[1] abbreviates: read-out: pIC50 (negative logarithm of the IC50 concentration) for inhibition of human cathepsin S (converted).
Where [2] appears, read: pH5.5, fluorescence at 20 minutes, read-out: Cat S activity IC50.

Counter-ions that a name gives are not always drawn. Like-named read-outs stand apart in the source and are kept apart here. Where only a bound is given, the exact number is not on record here.

Sequence of recombinant human Cathepsin S (P25774 115-331): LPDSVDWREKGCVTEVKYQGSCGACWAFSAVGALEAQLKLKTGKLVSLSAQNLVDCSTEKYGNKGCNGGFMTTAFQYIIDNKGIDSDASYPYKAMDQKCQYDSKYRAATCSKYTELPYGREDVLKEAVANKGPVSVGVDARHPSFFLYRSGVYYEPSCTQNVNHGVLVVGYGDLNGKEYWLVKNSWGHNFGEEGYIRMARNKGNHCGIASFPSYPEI

With `Cn1nnc2c(C#N)nc(-c3ccc(OCCN4CCNC(C(F)(F)F)C4)c(C(F)(F)F)c3)cc21` (stereo not shown) [Example 37q, 1-methyl-6-(3-(trifluoromethyl)-4-(2-(3-(trifluoromethyl)piperazin-1-yl)ethoxy)phenyl)-1H-[1,2,3]triazolo[4,5-c]pyridine-4-carbonitrile], under setting [1], the IC50 was < 10 nM.

For `CN(C)C(=O)CN1CC(CCOc2ccc(-c3cc4c(nnn4C)c(C#N)n3)cc2C(F)(F)F)C1` [Example 31, 6-(4-(2-(1-(2-dimethylamino-2-oxoethyl)azetidin-3-yl)ethoxy)-3-(trifluoromethyl)phenyl)-1-methyl-1H-[1,2,3]triazolo[4,5-c]pyridine-4-carbonitrile Hydrochloride], under setting [1], the IC50 is < 10 nM.

On to `Cn1nnc2c(C#N)nc(-c3ccc(OCCCN4CCN(CC(C)(C)O)CC4)c(C(F)(F)F)c3)cc21` [Example 36u, 6-(4-(3-(4-(2-hydroxy-2-methylpropyl)piperazin-1-yl)propoxy)-3-(trifluoromethyl)phenyl)-1-methyl-1H-[1,2,3]triazolo[4,5-c]pyridine-4-carbonitrile dihydrochloride], for which, under setting [1], the IC50 was < 10 nM.

For `Cn1nnc2c(C#N)nc(-c3ccc(OCCN4CCNC(=O)C4)c(C(F)(F)F)c3)cc21` [Example 37r, 1-methyl-6-(4-(2-(3-oxopiperazin-1-yl)ethoxy)-3-(trifluoromethyl)phenyl)-1H-[1,2,3]triazolo[4,5-c]pyridine-4-carbonitrile], the IC50 under setting [1] is < 10 nM.

As to `CN(C)CCCOc1ccc(-c2cc3c(ncn3C)c(C#N)n2)cc1C(F)(F)F` [WO 2009/010491 - Example 2a, reference compound], the IC50 under setting [2] stood at 32 nM.

Regarding `Cn1nnc2c(C#N)nc(-c3ccc(OCc4ccncc4)c(C(F)(F)F)c3)cc21` [Example 24, 1-methyl-6-(4-(pyridin-4-ylmethoxy)-3-(trifluoromethyl)phenyl)-1H-[1,2,3]triazolo[4,5-c]pyridine-4-carbonitrile], under setting [1], the IC50 was < 10 nM.

Consider `Cn1nnc2c(C#N)nc(-c3ccc(OCCC4CNC4)c(C(F)(F)F)c3)cc21` [Example 30, 6-(4-(2-(azetidin-3-yl)ethoxy)-3-(trifluoromethyl)phenyl)-1-methyl-1H-[1,2,3]triazolo[4,5-d]pyridine-4-carbonitrile 2,2,2-trifluoroacetate], for which, under setting [1], the IC50 is < 10 nM.

`CN(C)C(=O)CN1CCC(CCOc2ncc(-c3cc4c(nnn4C)c(C#N)n3)cc2C(F)(F)F)CC1` [Example 27a, 6-(6-(2-(1-(2-Dimethylamino-2-oxo-ethyl)piperidin-4-yl)ethoxy)-5-(trifluoromethyl)pyridin-3-yl)-1-methyl-1H-[1,2,3]triazolo[4,5-c]pyridine-4-carbonitrile hydrochloride]: under setting [1], the IC50 is < 10 nM.

On to `CN(CCOc1ccc(-c2cc3c(nnn3C)c(C#N)n2)cc1C(F)(F)F)CC(=O)N(C)C` [Example 37m, 2-((2-(4-(4-cyano-1-methyl-1H-[1,2,3]triazolo[4,5-c]pyridin-6-yl)-2-(trifluoromethyl)phenoxy)ethyl)(methyl)amino)-N,N-dimethylacetamide], for which the IC50 under setting [1] is < 10 nM.

In the case of `Cn1nnc2c(C#N)nc(-c3ccc(OCCC4CCN(c5ccccn5)CC4)c(C(F)(F)F)c3)cc21` [Example 4a, 1-methyl-6-(4-(2-(1-(pyridin-2-yl)piperidin-4-yl)ethoxy)-3-(trifluoromethyl)phenyl)-1H-[1,2,3]triazolo[4,5-c]pyridine-4-carbonitrile hydrochloride], the IC50 under setting [1] is < 10 nM.

Regarding `Cc1ccc(N2CCC(CCOc3ccc(-c4cc5c(nnn5C)c(C#N)n4)cc3C(F)(F)F)CC2)nc1` [Example 8, 1-methyl-6-(4-(2-(1-(5-methylpyridin-2-yl)piperidin-4-yl)ethoxy)-3-(trifluoromethyl)phenyl)-1H-[1,2,3]triazolo[4,5-c]pyridine-4-carbonitrile hydrochloride], the IC50 under setting [1] is < 10 nM.

Consider `Cn1nnc2c(C#N)nc(-c3ccc(OCCC4CCN(Cc5ncon5)CC4)c(C(F)(F)F)c3)cc21` [Example 3c, 6-(4-(2-(1-((1,2,4-oxadiazol-3-yl)methyl)piperidin-4-yl)ethoxy)-3-(trifluoromethyl)phenyl)-1-methyl-1H-[1,2,3]triazolo[4,5-c]pyridine-4-carbonitrile], for which the IC50 under setting [1] is < 10 nM.

On to `Cc1cccc(N2CCC(CCOc3ccc(-c4cc5c(ncn5C)c(C#N)n4)cc3C(F)(F)F)CC2)n1` [EP 09150709.5 - Example 24c, reference compound], for which the IC50 under setting [2] worked out at 26 nM.

For `Cn1nnc2c(C#N)nc(-c3ccc(OCc4ccc[n+]([O-])c4)c(C(F)(F)F)c3)cc21` [Example 23, methyl-6-(4-(1-N-oxy-pyridin-3-ylmethoxy)-3-(trifluoromethyl)phenyl)-1H-[1,2,3]triazolo[4,5-c]pyridine-4-carbonitrile], the IC50 under setting [1] was < 10 nM.

`Cn1cnc2c(C#N)nc(-c3ccc(OCCC4CCNCC4)c(C(F)(F)F)c3)cc21` [WO 2009/010491, Example 14a, reference compound]: the IC50 under setting [2] amounted to 8 nM.

For the compound `CN(CCCOc1ccc(-c2cc3c(nnn3C)c(C#N)n2)cc1C(F)(F)F)CC(=O)N(C)C` [Example 36x, 2-((3-(4-(4-cyano-1-methyl-1H-[1,2,3]triazolo[4,5-c]pyridin-6-yl)-2-(trifluoro-methyl)phenoxy)propyl)(methyl)amino)-N,N-dimethylacetamide hydrochloride], the IC50 under setting [1] was < 10 nM.

As for `Cc1cccc(N2CCC(CCOc3ccc(-c4cc5c(nnn5C)c(C#N)n4)cc3C(F)(F)F)CC2)n1` [Example 4b, 1-methyl-6-(4-(2-(1-(6-methylpyridin-2-yl)piperidin-4-yl)ethoxy)-3-(trifluoromethyl)phenyl)-1H-[1,2,3]triazolo[4,5-c]pyridine-4-carbonitrile hydrochloride], the IC50 was 9 nM under setting [2] and < 10 nM under setting [1].

For the compound `Cn1nnc2c(C#N)nc(-c3ccc(OCc4ccccn4)c(C(F)(F)F)c3)cc21` [Example 20, 1-methyl-6-(4-(pyridin-2-ylmethoxy)-3-(trifluoromethyl)phenyl)-1H-[1,2,3]triazolo[4,5-c]pyridine-4-carbonitrile], under setting [1], the IC50 was < 10 nM.

Consider `Cn1nnc2c(C#N)nc(-c3ccc(OCCN4CCS(=O)(=O)CC4)c(C(F)(F)F)c3)cc21` [Example 37p, 1-methyl-6-(4-(2-(4-S,S-dioxothiomorpholin-1-yl)ethoxy)-3-(trifluoromethyl)phenyl)-1H-[1,2,3]triazolo[4,5-c]pyridine-4-carbonitrile], for which, under setting [1], the IC50 is < 10 nM.

Regarding `CC(C)c1noc(COc2ccc(-c3cc4c(nnn4C)c(C#N)n3)cc2C(F)(F)F)n1` [Example 43, 6-(4-((3-isopropyl-1,2,4-oxadiazol-5-yl)methoxy)-3-(trifluoromethyl)phenyl)-1-methyl-1H-[1,2,3]triazolo[4,5-c]pyridine-4-carbonitrile], the IC50 under setting [1] is < 10 nM.

For `Cn1nnc2c(C#N)nc(-c3cnc(OCCC4CCNCC4)c(C(F)(F)F)c3)cc21` [Example 26, 1-Methyl-6-(6-(2-(piperidin-4-yl)ethoxy)-5-(trifluoromethyl)pyridin-3-yl)-1H-[1,2,3]-triazolo[4,5-c]pyridine-4-carbonitrile trifluoroacetate], the IC50 under setting [1] is < 10 nM.

As for `Cn1nnc2c(C#N)nc(-c3ccc(CCCO)c(C(F)(F)F)c3)cc21` [Example 44, 6-(4-(3-hydroxypropyl)-3-(trifluoromethyl)phenyl)-1-methyl-1H-[1,2,3]triazolo[4,5-c]pyridine-4-carbonitrile], the IC50 under setting [2] was 13 nM.

Consider `CN(C)CCCOc1ccc(-c2cc3c(nnn3C)c(C#N)n2)cc1C(F)(F)F` [Example 35, 6-(4-(3-(dimethylamino)propoxy)-3-(trifluoromethyl)phenyl)-1-methyl-1H-[1,2,3]triazolo[4,5-c]pyridine-4-carbonitrile], for which the IC50 by setting is: under setting [2], 3.3 nM; under setting [1], < 10 nM.

With `Cn1nnc2c(C#N)nc(-c3ccc(OCCCO)c(C(F)(F)F)c3)cc21` [Example 32, 6-(4-(3-hydroxypropoxy)-3-(trifluoromethyl)phenyl)-1-methyl-1H-[1,2,3]triazolo[4,5-c]pyridine-4-carbonitrile], the IC50 under setting [1] is < 10 nM.

With `Cn1nnc2c(C#N)nc(-c3ccc(OCCCN4CCN(CCO)CC4)c(C(F)(F)F)c3)cc21` [Example 36t, 6-(4-(3-(4-(2-hydroxyethyl)piperazin-1-yl)propoxy)-3-(trifluoromethyl)phenyl)-1-methyl-1H-[1,2,3]triazolo[4,5-c]pyridine-4-carbonitrile dihydrochloride], under setting [1], the IC50 is < 10 nM.

With `Cn1nnc2c(C#N)nc(-c3ccc(OCc4cccnc4)c(C(F)(F)F)c3)cc21` [Example 22, 1-methyl-6-(4-(pyridin-3-ylmethoxy)-3-(trifluoromethyl)phenyl)-1H-[1,2,3]triazolo[4,5-c]pyridine-4-carbonitrile], under setting [1], the IC50 was < 10 nM.

On to `Cn1nnc2c(C#N)nc(-c3ccc(OCc4cccc[n+]4[O-])c(C(F)(F)F)c3)cc21` [Example 21, 1-methyl-6-(4-(1-N-oxy-pyridin-2-ylmethoxy)-3-(trifluoromethyl)phenyl)-1H-[1,2,3]triazolo[4,5-c]pyridine-4-carbonitrile], for which, under setting [1], the IC50 was < 10 nM.

Regarding `Cn1nnc2c(C#N)nc(-c3ccc(OCCCN4CCN(c5ccccn5)CC4)c(C(F)(F)F)c3)cc21` [Example 36w, 1-methyl-6-(4-(3-(4-(pyridin-2-yl)piperazin-1-yl)propoxy)-3-(trifluoromethyl)phenyl)-1H-[1,2,3]triazolo[4,5-c]pyridine-4-carbonitrile hydrochloride], the IC50 under setting [1] is < 10 nM.

Consider `Cc1ccc(N2CC[C@H](CCOc3ccc(-c4cc5c(nnn5C)c(C#N)n4)cc3C(F)(F)F)C2)nc1` [Example 9b, (R)-1-methyl-6-(4-(2-(1-(5-methylpyridin-2-yl)pyrrolidin-3-yl)ethoxy)-3-(trifluoromethyl)phenyl)-1H-[1,2,3]triazolo[4,5-c]pyridine-4-carbonitrile hydrochloride], for which, under setting [1], the IC50 was < 10 nM.

The values are drawn from patent US9115126B2, “1H-[1,2,3]triazolo[4,5-c]pyridine-4-carbonitrile derivatives” (Merck Sharp & Dohme B.V., priority 2010, dated 2015).
